According to US20240398767A1, “INHIBITORS OF THE MTDH-SND1 PROTEIN COMPLEX FOR CANCER THERAPY” (The Trustees of Princeton University, priority 2021, published 2024):

Tests used:
[1] = biological target: T1, MTDH-SND1 interaction (Homo sapiens, UniProt Q7KZF4); assay: Cell-free split-luciferase (Split-luc) assay, SND1-NLuc + CLuc-MTDH; assay type: biochemical; settings: for IC50: split-luc assay in various concentrations; for split-luc activity: 50 μM peptide
T1 construct: made in house; host or cells: HEK293T cells, transient transfection of pcDNA3.1 plasmids; crude cleared lysates, each fusion expressed separately and the lysates pre-mixed
Excerpt: To generate a luciferase-based screening system, firefly luciferase was split into N- and C-terminals according to previous studies^21-23. Both N- and C-terminal domains alone have almost undetectable luciferase activity (FIG. 10A). Next, the two fragments were fused to SND1 and MTDH interaction domains respectively to generate SND1-NLuc and CLuc-MTDH (Split-luc) (FIG. 10A, left, and Table 3). […] However, when SND1-NLuc+CLuc-MTDH were co-expressed, N- and C-terminal domains of the luciferase fragments were brought close to each other due to the interaction between SND1 and MTDH, and substantial luciferase activity was reconstituted (FIG. 3A, left and FIG. 10A).
(§1) Luciferase-based screening. Seed HEK293T cells on 3×15 cm dish at 18-24 hr before transfection with 7-8×10^6 cells per dish targeting 70-80% confluence when start transfection. 20 μg of pCDNA3.1-SND1-NLuc, pCDNA3.1-CLuc-MTDH, or 2 μg of pCDNA3.1-NLuc-CLuc plasmids that described above were transfected to each dish. 72 hr after transfection the cells were lysed with 5 ml of luciferase lysis buffer (2 mM EDTA, 20 mM DTT, 10% glycerol, 1% Triton X-100, 25 mM Tris base, adjusted to pH7.8 with H3PO4) at 4° C. for 20 min. The protein lysates were centrifuged at 13,000 rpm for 10 min, and the supernatant were collected.
For small chemical compound screening, white, flat-bottom, solid 384-well plates were used. Compounds were added into each well as 0.1 μl of 10 mM DMSO solution (or same amount of DMSO, serve as control). The first and last columns were free, and MTDH wild type (PNSDWNAPAEEWGNW) or mutant (PNSDANAPAEEAGNW) peptides were added as positive and negative controls right before screening. Same amount of MTDH-CLuc and SND1-NLuc were pre-mixed at 4° C. for 30 min to generate split-luc. 5 μl of split- or linked-luc was added into each well. 15 μl of luciferase assay buffer (25 mM Glycylglycine pH 7.8, 15 mM K3PO4 pH 7.8, 15 mM MgSO4, 4 mM EGTA, 2 mM ATP added just before use, 10 mM DTT added just before use and 1 mM D-Luciferin added just before use) was then added into each well to get a 20 μl reaction system with 50 μM of compounds (peptides) in each well. The plates were incubated at 4° C. for 1 hr and luciferase activity at each well was measured.
The inhibitory efficiency of each compound was calculated as following: (signal at DMSO well−signal at compound well)/signal at DMSO well. MTDH wild type or mutant peptide in each plate was served as positive and negative controls to monitor the data quality of each plate.
T1 sequence (Q7KZF4 with tags, fused parts or gaps): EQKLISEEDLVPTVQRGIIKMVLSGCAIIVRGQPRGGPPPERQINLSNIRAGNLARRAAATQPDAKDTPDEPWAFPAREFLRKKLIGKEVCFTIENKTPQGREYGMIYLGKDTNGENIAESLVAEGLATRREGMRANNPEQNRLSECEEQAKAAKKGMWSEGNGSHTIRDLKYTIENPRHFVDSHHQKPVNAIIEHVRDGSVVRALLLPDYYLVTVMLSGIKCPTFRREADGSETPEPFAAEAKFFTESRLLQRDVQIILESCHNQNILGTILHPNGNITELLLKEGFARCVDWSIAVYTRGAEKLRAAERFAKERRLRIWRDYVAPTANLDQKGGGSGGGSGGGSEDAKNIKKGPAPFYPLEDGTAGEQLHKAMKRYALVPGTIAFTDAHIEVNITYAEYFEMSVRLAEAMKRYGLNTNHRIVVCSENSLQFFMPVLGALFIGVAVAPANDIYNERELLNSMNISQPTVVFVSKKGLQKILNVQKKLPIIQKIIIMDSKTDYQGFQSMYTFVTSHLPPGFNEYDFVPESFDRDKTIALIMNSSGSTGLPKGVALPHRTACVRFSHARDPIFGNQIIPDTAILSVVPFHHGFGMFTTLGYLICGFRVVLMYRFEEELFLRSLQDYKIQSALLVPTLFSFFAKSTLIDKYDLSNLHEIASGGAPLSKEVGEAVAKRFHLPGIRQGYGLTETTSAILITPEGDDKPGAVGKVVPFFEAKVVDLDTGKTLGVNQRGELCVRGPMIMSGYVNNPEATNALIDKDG

[2] = biological target: T2, MTDH-SND1 interaction: SND1-NLuc (human SND1 16-339aa fused via 3x GGGS linker to N-terminal firefly luciferase 1-416aa) + CLuc-MTDH (C-terminal firefly luciferase 398-550aa fused via 3x GGGS linker to human MTDH 386-407aa) (Homo sapiens, UniProt Q7KZF4); assay: Cell-free split-luciferase assay of MTDH-SND1 interaction disruption, multiple doses (FIG. 3E); assay type: binding; settings: cell free (HEK293T lysates), curves fit, read-out: MTDH-SND1 interaction (split-luciferase) SND1-NLuc + CLuc-MTDH interaction domains IC50
T2 construct: CLuc (398-550)-GGGS linker-MTDH (386-407) with HA tag; expressed in HEK293T; cell-free split-luciferase complementation
T2 sequence (Q7KZF4 with tags, fused parts or gaps): as above
T2 sequence (Q86UE4 386-407 partner): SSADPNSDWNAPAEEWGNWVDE

[3] = system: 4TO7 lung metastases; assay: Established 4TO7 lung macrometastases; assay type: in vivo, Balb/C females
Procedure: For FIGS. 7A-7D, 2 k 4TO7 cells were injected into Balb/C females. 2 weeks after the injections, the mice were randomized based on lung metastasis that indicated by BLI, and were divided into four groups followed by vehicle, paclitaxel (Pac), and C26-A6 treatment alone or in combination. For Pac, the mice were treated with 20 mg/kg of Pac twice per week for the first two week and then once per week after that, For C26-A6, the mice were treated with 15 mg/kg of C26-A6 5 days per week. n=6 mice per group. Data represent mean±SEM.
FIG. 7A, Representative mice right before the treatment (week 2) and at week 10 are shown.
FIG. 7B, The BLI signal was quantified at week 2. Significance determined by one-way ANOVA analysis with Dunnett's test for multiple comparisons.
FIG. 7C, The metastasis progression of each individual is shown.
FIG. 7D, Survival rate in each group was analyzed. Significance determined by two-sided Log-rank test.
Lastly, to mimic the clinical scenario of adjuvant chemotherapy following surgical removal of the primary tumors, SCP28 mammary tumors were removed when they reached 5 mm in diameter, the mice were then randomly separated into four groups and subjected to the different treatment regimens as above. […] The mice were then treated with vehicle or paclitaxel and C26-A6 alone or in combination, and the metastasis progression was monitored by BLL.

[4] = biological target: T3, Linked-luc (NLuc and CLuc of firefly luciferase fused together) (Photinus pyralis, UniProt P08659, INS416[…]); assay: Linked-luciferase (Linked-luc) counter screen, cell free; assay type: biochemical; settings: 50 μM peptide
T3 construct: made in house; host or cells: HEK293T cells, transient transfection of pcDNA3.1-NLuc-CLuc; crude cleared lysate
T3 sequence (P08659 with tags, fused parts or gaps INS416[withheld]): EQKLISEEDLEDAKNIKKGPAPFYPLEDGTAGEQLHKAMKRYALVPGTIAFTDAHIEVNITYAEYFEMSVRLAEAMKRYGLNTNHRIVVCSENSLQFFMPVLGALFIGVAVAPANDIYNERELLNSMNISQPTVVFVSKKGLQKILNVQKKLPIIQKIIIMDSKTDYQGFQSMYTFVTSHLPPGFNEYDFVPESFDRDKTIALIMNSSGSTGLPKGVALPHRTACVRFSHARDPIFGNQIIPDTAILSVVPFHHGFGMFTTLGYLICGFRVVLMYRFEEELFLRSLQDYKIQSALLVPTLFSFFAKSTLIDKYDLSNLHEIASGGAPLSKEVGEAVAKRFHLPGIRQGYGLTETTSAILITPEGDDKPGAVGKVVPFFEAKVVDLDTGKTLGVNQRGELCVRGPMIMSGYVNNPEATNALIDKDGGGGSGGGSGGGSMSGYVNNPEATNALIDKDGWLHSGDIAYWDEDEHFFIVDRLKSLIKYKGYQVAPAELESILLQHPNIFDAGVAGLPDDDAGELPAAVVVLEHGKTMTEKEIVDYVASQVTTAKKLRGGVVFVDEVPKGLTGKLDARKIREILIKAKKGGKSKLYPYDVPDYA
Excerpt: The interaction between SND1-NLuc and CLuc-MTDH was also validated with co-immunoprecipitation (Co-IP) experiments (FIG. 10B). In the presence of the compounds (inhibitors) that block MTDH-SND1 interaction, the reconstitution of luciferase activity was expected to be reduced (FIG. 3A). Meanwhile, considering the possibility that compounds capable of directly inhibiting the enzymatic activity of luciferase could also result in lower luciferase signal without any blocking effect on MTDH-SND1 interaction, Linked-luc that directly fuse NLuc and CLuc together was generated to be used in counter screening (FIG. 3A, right, and Table 3).
as §1, with “The protein lysates were centrifuged at 13,000 rpm for 10 min, and the supernatant were collected.” left out
For small chemical compound screening, white, flat-bottom, solid 384-well plates were used. […] The plates were incubated at 4° C. for 1 hr and luciferase activity at each well was measured.

[5] = biological target: T4, MTDH-SND1 interaction (Homo sapiens, UniProt Q7KZF4); assay: Co-immunoprecipitation (Co-IP) in SCP28 lysates with anti-MTDH antibody, Western blot for SND1; assay type: binding; settings: 500 μM, SCP28 lysate
T4 construct: endogenous in cells; host or cells: SCP28 cells (lysate)
T4 sequence (Q7KZF4 2-910 limits assumed): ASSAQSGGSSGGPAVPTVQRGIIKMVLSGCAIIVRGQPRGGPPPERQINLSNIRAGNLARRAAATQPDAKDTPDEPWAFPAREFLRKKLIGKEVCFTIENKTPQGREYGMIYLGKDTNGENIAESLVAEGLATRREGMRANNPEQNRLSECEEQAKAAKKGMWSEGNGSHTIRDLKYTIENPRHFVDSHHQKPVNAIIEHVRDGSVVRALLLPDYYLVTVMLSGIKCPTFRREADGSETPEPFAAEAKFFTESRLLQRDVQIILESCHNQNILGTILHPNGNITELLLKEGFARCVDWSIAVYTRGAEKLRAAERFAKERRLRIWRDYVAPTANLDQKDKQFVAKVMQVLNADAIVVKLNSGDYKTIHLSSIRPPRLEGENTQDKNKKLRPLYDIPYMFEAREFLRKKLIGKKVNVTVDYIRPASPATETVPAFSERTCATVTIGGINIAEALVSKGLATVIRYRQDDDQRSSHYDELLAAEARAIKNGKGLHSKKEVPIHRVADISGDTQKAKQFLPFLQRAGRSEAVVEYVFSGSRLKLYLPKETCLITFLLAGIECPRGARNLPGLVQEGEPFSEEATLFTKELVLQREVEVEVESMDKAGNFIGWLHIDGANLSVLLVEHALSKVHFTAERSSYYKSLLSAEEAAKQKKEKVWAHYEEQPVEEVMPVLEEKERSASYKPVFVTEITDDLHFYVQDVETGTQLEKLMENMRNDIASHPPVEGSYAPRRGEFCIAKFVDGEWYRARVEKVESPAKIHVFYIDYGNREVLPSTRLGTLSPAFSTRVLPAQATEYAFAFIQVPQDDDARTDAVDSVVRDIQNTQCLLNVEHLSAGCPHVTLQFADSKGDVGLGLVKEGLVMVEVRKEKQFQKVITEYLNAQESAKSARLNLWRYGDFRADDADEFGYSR
Procedure: FIG. 3F, SCP28 cells grown confluent in each 10-cm dish were lysed with 1 ml IP lysis buffer. 500 μM of the compounds were added into each 1 ml of the samples and IP lysis buffer with 2 μg of anti-MTDH antibody. Western blot was then performed to detect SND1 that binds to MTDH.
FIG. 10E, Schematic diagram of Co-IP based confirmation of MTDH-SND1 inhibitory compounds (left). SCP28 cells were lysed for IP assay.2 μg of MTDH antibody together with 500 μM of MTDH wild type (Pep-WT) or mutant (Pep-MT) peptides were added into each 1 ml of samples. Red star indicates wild type MTDH peptide competing off SND1 that binds to MTDH.
Co-immunoprecipitation assay (Co-IP), which is a commonly used standard test to determine protein-protein interaction, was next employed to validate the candidates. Lysates of breast cancer cell line SCP28, a single cell-derived subline from the MDA-MB-231 TNBC cell line^25, was immunoprecipitated with anti-MTDH antibody alone or together with inhibitors (FIG. 3F and FIG. 10E). The samples were then incubated with Protein-A/G beads to pull down MTDH, followed by Western blot analysis to detect SND1. […] Using multiple screening and validation platforms, two classes of compounds, C26s and C32s, were obtained that inhibit MTDH-SND1 interaction.
Immunoprecipitation (IP) and western blotting (WB) analysis. For IP experiment, samples were prepared as previously described^32. 100 μl of the supernatant was transferred to a new tube as input, and the rest was incubated with 2 μg of IgG, anti-Myc (Santa Cruz, SC-40), or anti-MTDH (ThermoFisher, 40-6500) (as indicated in each experiment) overnight at 4° C. (small chemical compounds may be added at this step as indicated in each experiment). The rest standard IP procedures were performed as previously noted^32. […]

COc1ccc(Cl)cc1S(=O)(=O)Nc1cccn2c(C3CCC3)nnc12 [Analog C26]
IC50 [1]: < 20 µM

COc1ccc(NC(=O)N2CCc3c(C(=O)NC4CCN(C)CC4)cccc32)cc1 [Analog C32]
IC50 [1]: < 20 µM

COc1ccc(Cl)cc1S(=O)(=O)Nc1cccn2cnnc12 [Compound C26-A1]
IC50 [2]: 8.6 µM

COc1ccc(Cl)cc1S(=O)(=O)Nc1cccn2ncnc12 [Compound C26-A2]
IC50 [2]: 9.4 µM

COc1ccc(Cl)cc1S(=O)(=O)Nc1cccn2nc(C)nc12 [Compound C26-A6]
IC50 [2]: 2.4 µM

COc1ccc(Cl)cc1S(=O)(=O)Nc1cccn2c(C3CCC3)nnc12 [Compound C26]
IC50 [2]: 14.9 µM

COc1ccc(NC(=O)N2CCc3c(C(=O)NC4CCN(C5CC5)CC4)cccc32)cc1 [Compound C32-A2]
IC50 [2]: 14.5 µM

CNC(=O)c1cccc2c1CCN2C(=O)Nc1ccc(OC)cc1 [Compound C32-A4]
IC50 [2]: 4.9 µM

COc1ccc(NC(=O)N2CCc3c(C(=O)N(C)C)cccc32)cc1 [Compound C32-A5]
IC50 [2]: 4.6 µM

COc1ccc(NC(=O)N2CCc3c(C(=O)NC4CCN(C)CC4)cccc32)cc1 [Compound C32]
IC50 [2]: 51.1 µM

CC(=O)O[C@H]1C(=O)[C@@]2(C)[C@H]([C@H](OC(=O)c3ccccc3)[C@]3(O)C[C@H](OC(=O)[C@H](O)[C@@H](NC(=O)c4ccccc4)c4ccccc4)C(C)=C1C3(C)C)[C@]1(OC(C)=O)CO[C@@H]1C[C@@H]2O [paclitaxel, reference compound]
metastatic growth (BLI) ([3]; Pac 20 mg/kg, C26-A6 15 mg/kg 5 days per week): slowed down metastatic growth
metastasis shrinkage ([3]; six mice per group): did not result in metastasis shrinkage

PNSDANAPAEEAGNW [MTDH-MT, reference compound]
split-luc activity [1]: but not the mutant significantly inhibited split-luc activity
linked-luc activity [4]: not affected

PNSDWNAPAEEWGNW [MTDH-WT, reference compound]
split-luc activity [1]: significantly inhibited split-luc activity
MTDH-SND1 interaction (SND1 that binds to MTDH, Co-IP) [5]: blocks MTDH-SND1 interaction
linked-luc activity [4]: not affected
